Reference: patent US11866431B2, “Bicyclic compounds” (Vivace Therapeutics, Inc., priority 2018, dated 2024)
pIC50: −log10 of the molar value.

Test system: 8XTBD luciferase reporter (YAP reporter) in HEK293T cells
Assay: YAP Reporter Assay
Assay type: cell-based
Details: Homo sapiens, HEK-293T; HEK293T cells stably transfected with 8XTBD luciferase reporter and pRLTK; 24-hr incubation; top concentration 3 μM; read-out: Firefly Luciferase IC50
Description: HEK293T cells stably transfected with 8XTBD luciferase reporter and pRLTK in 384-well plates were treated with the test compounds, starting from 3 μM (final concentration in assay plate), 1:3 dilution, and 10 points in quadruplicates. Post 24-hr incubation with compounds at 37° C. and 5% CO2, cells were lysed and 8XTBD-driven firefly luciferase and control TK-driven renilla luciferase activities were measured using Promega Dual-Luciferase Reporter Assay System.
Reagents: The reagents used for this study are: DMEM: Invitrogen #11960077, Dual-Glo Luciferase Assay System: Promega-E2980, Puromycin Dihydrochloride: Invitrogen-A1113803, 384-well plate: PerkinElmer-6007480, L-GLUTAMINE: Invitrogen-25030164, Hygromycin B: Invitrogen-10687010, and Penicillin-Streptomycin: Merk-TMS-AB2-C
Media: The media used for this assay were: Culture Medium: DMEM+1 ug/mL puromycin+200 ug/mL hygromycin (with 10% FBS+1 mM L-glutamine); and Assay Medium: DMEM (with 10% FBS+1 mM L-glutamine+1×P/S).
Cell Plating: The appropriate media was warmed at 37° C. by water bath: Culture Medium, Assay Medium, 1*D-PBS, 0.05% trypsin-EDTA. The cells were trypsinized after removing all media, then washed with 1*sterile D-PBS and then with 2 ml 0.05% trypsin-EDTA. The cells were then incubated at RT for one minute. Then 10 ml/75 cm2 flask Assay Medium was added to each flask. Using a 10 ml pipette, the cells were then gently resuspended in the media, until the clumps completely disappeared. The cells were then transferred into 50 ml centrifuge tubes and were centrifuged at 800 rpm for 5 mins. The medium was removed and the cells were resuspended with Assay Medium. An aliquot of cells was used to count the cell density (cells/ml). The cell suspension was then diluted with Assay Medium to a concentration of 6×10^4 cells/ml. 50 ul cells suspension was then plated to 384-well plate (PerkinElmer-6007480), 3×10^3 cells/well and the cells were incubated in an incubator at 37° C. 5% CO2.
Compound Treatment: In the afternoon (incubation of the plate with 3-4 hrs), the test compounds were added by Echo, starting from 3 uM (final concentration in the assay plate), 1:3 dilution, 10 points, quadruplicates. The plate was placed at 37° C. 5% CO2 incubator for 24 hrs.
Detection: The Dual-Glo Luciferase Reagent was prepared by transferring the contents of one bottle of Dual-Glo Luciferase Buffer to one bottle of Dual-Glo Luciferase Substrate to create the Dual-Glo Luciferase Reagent. Mixing was performed by inversion until the substrate was thoroughly dissolved. After mixing, the reagent was aliquoted into 15 ml tubes. In the afternoon (24 hrs post compound treatment), the DMEM+ medium in the 384 well plates were aspirated by Microplate Washer.
Measuring firefly luciferase activity: 20 ul Dual-Glo Luciferase Reagent was added to the 384-well plates. The plates were protected from light to prevent interference with the assay. The plates were shaken for 1 min followed centrifuging plates at 1000 rpm for 30 seconds. After waiting at least 10 minutes, the firefly luminescence was measured by Envision.
Measuring renilla luciferase activity: 20 ul Stop-Glo Reagent was added to the 384-well plates. The plates were shaken for 1 min and then centrifuged at 1000 rpm for 30 seconds. After waiting at least 10 minutes, the renilla luminescence was measured by Envision.
Compound IC50 and maximum inhibition on the firefly luciferase and renilla luciferase activities were reported separately.

| Compound | pIC50 |
| --- | --- |
| O=C(NCCC=CCO)c1ccc2c(-c3ccc(C(F)(F)F)cc3)cccc2c1 (stereo in doubt) [Compound 245, N-[(E)-5-hydroxypent-3-enyl]-5-[4-(trifluoromethyl)phenyl]naphthalene-2-carboxamide] | 6.00 to 7.00 |
| CC(C)NC(=O)c1ccc2c(-c3ccc(C(F)(F)F)cc3)cccc2c1 [Compound 1, N-isopropyl-5-(4-(trifluoromethyl)phenyl)-2-naphthamide] | > 7.00 |
| CS(=O)(=O)NC(=O)c1ccc2c(-c3ccc(C(F)(F)F)cc3)cccc2c1 [Compound 2, N-(methylsulfonyl)-5-(4-(trifluoromethyl)phenyl)-2-naphthamide] | > 7.00 |
| CNS(=O)(=O)c1ccc2c(-c3ccc(C(F)(F)F)cc3)cccc2c1 [Compound 3, N-methyl-5-(4-(trifluoromethyl)phenyl)naphthalene-2-sulfonamide] | > 7.00 |
| CC(C)NC(=O)c1cnc2c(-c3ccc(C(F)(F)F)cc3)cccc2c1 [Compound 4, N-isopropyl-8-(4-(trifluoromethyl)phenyl)quinoline-3-carboxamide] | > 7.00 |
| CCNS(=O)(=O)c1ccc2c(-c3ccc(C(F)(F)F)cc3)cccc2c1 [Compound 5, N-ethyl-5-(4-(trifluoromethyl)phenyl)naphthalene-2-sulfonamide] | > 7.00 |
| CC(C)NS(=O)(=O)c1ccc2c(-c3ccc(C(F)(F)F)cc3)cccc2c1 [Compound 6, N-isopropyl-5-(4-(trifluoromethyl)phenyl)naphthalene-2-sulfonamide] | 6.00 to 7.00 |
| CC(C)NC(=O)c1ccc2c(-c3ccc(C(F)(F)F)cc3)ccnc2c1 [Compound 7, N-isopropyl-4-[4-(trifluoromethyl)phenyl]quinoline-7-carboxamide] | 6.00 to 7.00 |
| CC(C)NC(=O)c1ccc2c(-c3ccc(C(F)(F)F)cc3)ccc(Br)c2c1 [Compound 8, 8-bromo-N-isopropyl-5-(4-(trifluoromethyl)phenyl)-2-naphthamide] | > 7.00 |
| COC(=O)c1ccc2c(-c3ccc(C(F)(F)F)cc3)nccc2c1 [Compound 9, Methyl 1-[4-(trifluoromethyl)phenyl]isoquinoline-6-carboxylate] | 6.00 to 7.00 |
| COC(=O)c1ccc2c(-c3ccc(C(F)(F)F)cc3)cnc(Cl)c2c1 [Compound 10, Methyl 1-chloro-4-[4-(trifluoromethyl)phenyl]isoquinoline-7-carboxylate] | 5.52 to 6.00 |
| CC(C)NC(=O)c1ccc2c(-c3ccc(C(F)(F)F)cc3)nccc2c1 [Compound 11, N-isopropyl-1-[4-(trifluoromethyl)phenyl]isoquinoline-6-carboxamide] | > 7.00 |
| CC(C)NC(=O)c1ccc2c(-c3ccc(C(F)(F)F)cc3)ccc(NC(=O)OC(C)(C)C)c2c1 [Compound 12, Tert-Butyl (7-(isopropylcarbamoyl)-4-(4-(trifluoromethyl)phenyl)naphthalen-1-yl)carbamate] | 6.00 to 7.00 |
| CC(C)NC(=O)c1ccc2c(-c3ccc(C(F)(F)F)cc3)ccc(Cl)c2c1 [Compound 13, 8-chloro-N-isopropyl-5-(4-(trifluoromethyl)phenyl)-2-naphthamide] | > 7.00 |
| COC(=O)c1ccc2c(-c3ccc(C(F)(F)F)cc3)cnc(O)c2c1 [Compound 14, Methyl 1-oxo-4-[4-(trifluoromethyl)phenyl]-2H-isoquinoline-7-carboxylate] | > 7.00 |
| COC(=O)c1ccc2c(-c3ccc(C(F)(F)F)cc3)cn(C)c(=O)c2c1 [Compound 15, Methyl 2-methyl-1-oxo-4-[4-(trifluoromethyl)phenyl]isoquinoline-7-carboxylate] | 6.00 to 7.00 |

| Compound | pIC50 |
| --- | --- |
| CC(C)NC(=O)c1ccc2c(-c3ccc(C(F)(F)F)cc3)ccc(N)c2c1 [Compound 16, 8-amino-N-isopropyl-5-(4-(trifluoromethyl)phenyl)-2-naphthamide] | > 7.00 |
| CC(=O)Nc1ccc(-c2ccc(C(F)(F)F)cc2)c2ccc(C(=O)NC(C)C)cc12 [Compound 17, 8-acetamido-N-isopropyl-5-(4-(trifluoromethyl)phenyl)-2-naphthamide] | > 7.00 |
| CSc1ccc(-c2ccc(C(F)(F)F)cc2)c2ccc(C(=O)NC(C)C)cc12 [Compound 18, N-isopropyl-8-methylsulfanyl-5-[4-(trifluoromethyl)phenyl]naphthalene-2-carboxamide] | > 7.00 |
| Cc1ccc(-c2ccc(C(F)(F)F)cc2)c2ccc(C(=O)NC(C)C)cc12 [Compound 19, N-isopropyl-8-methyl-5-[4-(trifluoromethyl)phenyl]naphthalene-2-carboxamide] | > 7.00 |
| C#Cc1ccc(-c2ccc(C(F)(F)F)cc2)c2ccc(C(=O)NC(C)C)cc12 [Compound 20, 8-ethynyl-N-isopropyl-5-[4-(trifluoromethyl)phenyl]naphthalene-2-carboxamide] | > 7.00 |
| CCc1ccc(-c2ccc(C(F)(F)F)cc2)c2ccc(C(=O)NC(C)C)cc12 [Compound 21, 8-ethyl-N-isopropyl-5-[4-(trifluoromethyl)phenyl]naphthalene-2-carboxamide] | > 7.00 |
| CC(C)NC(=O)c1ccc2c(-c3ccc(C(F)(F)F)cc3)ccc(C3CC3)c2c1 [Compound 22, 8-cyclopropyl-N-isopropyl-5-(4-(trifluoromethyl)phenyl)-2-naphthamide] | > 7.00 |
| CC(C)NC(=O)c1ccc2c(-c3ccc(C(F)(F)F)cc3)ccc(NS(C)(=O)=O)c2c1 [Compound 23, N-isopropyl-8-(methylsulfonamido)-5-(4-(trifluoromethyl)phenyl)-2-naphthamide] | > 7.00 |
| COC(=O)c1ccc2c(-c3ccc(C(F)(F)F)cc3)cncc2c1 [Compound 24, Methyl 4-[4-(trifluoromethyl)phenyl]isoquinoline-7-carboxylate] | > 7.00 |
| CC(C)NC(=O)c1ccc2c(-c3ccc(C(F)(F)F)cc3)cncc2c1 [Compound 25, N-isopropyl-4-[4-(trifluoromethyl)phenyl]isoquinoline-7-carboxamide] | 6.00 to 7.00 |
| CC(C)NC(=O)c1ccc2c(-c3ccc(C(F)(F)F)cc3)cn(C)c(=O)c2c1 [Compound 26, N-isopropyl-2-methyl-1-oxo-4-(4-(trifluoromethyl)phenyl)-1,2-dihydroisoquinoline-7-carboxamide] | > 7.00 |
| CC(C)NC(=O)c1ccc2c(-c3ccc(C(F)(F)F)cc3)ccc([S+](C)[O-])c2c1 (centres unmarked) [Compound 27, N-isopropyl-8-methylsulfinyl-5-[4-(trifluoromethyl)phenyl]naphthalene-2-carboxamide] | 6.00 to 7.00 |
| CC(C)NC(=O)c1ccc2c(-c3ccc(C(F)(F)F)cc3)ccc(S(C)(=O)=O)c2c1 [Compound 28, N-isopropyl-8-methylsulfonyl-5-[4-(trifluoromethyl)phenyl]naphthalene-2-carboxamide] | 5.52 to 6.00 |
| NS(=O)(=O)NC(=O)c1ccc2c(-c3ccc(C(F)(F)F)cc3)cccc2c1 [Compound 29, N-sulfamoyl-5-(4-(trifluoromethyl)phenyl)-2-naphthamide] | 6.00 to 7.00 |
| CC(=O)N(C)c1ccc(-c2ccc(C(F)(F)F)cc2)c2ccc(C(=O)NC(C)C)cc12 [Compound 30, N-isopropyl-8-(N-methylacetamido)-5-(4-(trifluoromethyl)phenyl)-2-naphthamide] | 6.00 to 7.00 |
| CC(C)NC(=O)c1ccc2c(-c3ccc(C(F)(F)F)cc3)cc(Br)c(N)c2c1 [Compound 31, 8-amino-7-bromo-N-isopropyl-5-(4-(trifluoromethyl)phenyl)-2-naphthamide] | > 7.00 |
